Where a name gives a salt, the structure may show the parent alone.
How the values were obtained:
Format in all cases: physicochemical
[1] = Stability of AN-197 by daily HPLC over 24 days, mobile phase solution vs neat oil; conditions: 20° C.
Description: (§1) HPLC analyses were performed on a Water 2695 Separations Module, using a Luna C18 (2) 50 mm×4.6 mm×3 um column, a 5 μl injection volume and a 2487 dual wavelength detector under the following instrumental conditions: Mobile phase A: 0.1% formic acid; Mobile phase B: acetonitrile; Flow rate: 0.5 ml per minute; Mobile phase gradient: 0.0 minutes 90% A, 10% B, 14.0 minutes 20% A, 80% B, 15.0 minutes 90% A, 10% B and 20.0 minutes 90% A, 10% B; Run time: 20 minutes; Detection: UV at 254 nm; Column temperature: 40° C.
The stability of AN-197 was determined by performing an HPLC analysis daily during a period of 24 days and determining the appearance of perphenazine and GABA, the degradation products of AN-197. A sample of AN-197, prepared according to the procedure described above in Example 4 (Route B), was dissolved in the mobile phase solution used in the HPLC analysis (2:1 acetonitrile:water, pH=8) and was kept at 20° C. For comparison, a sample of neat AN-197 was kept under the same conditions and was similarly analyzed.

[2] = Stability of AN-197 under acidic conditions (citric acid solution); conditions: in ethyl acetate, stirred in citric acid solution overnight
Description: To evaluate the stability of AN-197 under acidic conditions, a sample of AN-197, prepared according to the procedure described in Example 4 (Route B) above, was dissolved in ethyl acetate and stirred in a citric acid solution overnight.

[3] = Stability of AN-197 in dichloromethane, acetonitrile or ethyl acetate heated to 40° C. overnight; conditions: dissolved in dichloromethane
Description: To evaluate the stability of AN-197 under conditions of a large scale production, characterized by longer procedure times, samples of AN-197, prepared according to the procedure described in Example 4 above (Route B) above, dissolved in dichloromethane, acetonitrile or ethyl acetate were heated to 40° C. overnight. […] It was therefore concluded that AN-197 is stable under such conditions.

[4] = Hygroscopicity of mesylate and maleate salts by Karl Fischer titration
Description: Water absorption and content measurements were carried out using a Karl Fischer (KF) titrator. Karl Fischer titration is a classic method in analytical chemistry that uses calometric titration to determine the moisture content of a sample, which is specific to water. The titration reaction taking place in the presence of a base and 50:50 methanol:dichloromethane as a titration solvent.
The accurately weighted samples (near 100 mg) of the tested compound were placed in the titrator to determine the amount of sample required for measuring 10-250 μg of water, and the water content was calculated accordingly.
(§2) Stability and hygroscopicity studies of the mesylate and maleate salts of the conjugate were carried out under various conditions. The hygroscopicity of the salts was determined by following the water content of the salt using the Karl Fischer (KF) titration analysis method. The chemical stability of the salts was determined by following the appearance of the degradation product perphenazine using HPLC analyses. The samples were kept at −20° C. under nitrogen, at room temperature in an open container, at room temperature in a sealed container and at 40° C. in a sealed container. The samples were tested at the end of the preparation procedure (t=0), 72 hours after the preparation time (t=72), 1 week after the preparation time (t=168) and two weeks after the preparation time (t=336).

[5] = Chemical stability of mesylate and maleate salts by HPLC under various storage conditions; conditions: for texture and color after storage: room temperature, open to the atmosphere
[6] = as above
Description: The chemical stability of the conjugates was determined by HPLC analyses and was measured by the relative peak areas of the substance and of at least one of its degradation products. Thus, as is further exemplified in the Examples section that follows, the chemical stability of the exemplary conjugates described above was measured during time periods that typically ranged from 1 day to 24 days, whereby the conjugates were kept in sealed or open containers, with or without nitrogen atmosphere, and at a temperature range of from −20° C. to 40° C.
as §1, §2

[7] = Solubility in 1% weight/volume lactic acid solution; conditions: agitated 1 hour at room temperature
Description: 1.0 gram of each of the mesylate and maleate addition salts prepared as described herein was agitated in 10 ml of 1% weight/volume lactic acid solution for 1 hour at room temperature. Any solids remaining thereafter were filtered off and the filtrate was dried under vacuum until no further change in weight was detected. […] The calculated solubility obtained for the mesylate salt was more than 100 mg/ml.

[8] = Open container kept at room temperature, t = 0 hours
[9] = Open container kept at room temperature, t = 72 hours
[10] = Open container kept at room temperature, t = 168 hours
[11] = Open container kept at room temperature, t = 336 hours
[12] = Sealed container kept at 40° C., t = 0 hours
[13] = Sealed container kept at 40° C., t = 72 hours
[14] = Sealed container kept at 40° C., t = 168 hours
[15] = Sealed container kept at 40° C., t = 336 hours
[16] = Sealed container kept at room temperature, t = 0 hours
[17] = Sealed container kept at room temperature, t = 72 hours
[18] = Sealed container kept at room temperature, t = 168 hours
[19] = Sealed container kept at room temperature, t = 336 hours
[20] = Sealed container kept at −20° C. under N2, t = 0 hours
[21] = Sealed container kept at −20° C. under N2, t = 72 hours
[22] = Sealed container kept at −20° C. under N2, t = 168 hours
[23] = Sealed container kept at −20° C. under N2, t = 336 hours
[24] = open container at room temperature, five weeks (about 840 hours)

## CC(C)(C)OC(=O)NCCCC(=O)OCCN1CCN(CCCN2c3ccccc3Sc3ccc(Cl)cc32)CC1 [AN-197, Perphenazine N-Boc-4-aminobutyrate]
[1]; AN-197 solution in HPLC mobile phase (2:1 acetonitrile:water, pH=8), after 24 days
  perphenazine content (HPLC): 7.98%
[1]; AN-197 solution in HPLC mobile phase (2:1 acetonitrile:water, pH=8), initial
  perphenazine content (HPLC): 0.42%
[1]; neat oil, after 24 days
  perphenazine content (HPLC): 0.79%
[1]; neat oil, initial
  perphenazine content (HPLC): 0.42%
[2]
  hydrolysis of the product: no hydrolysis
[3]
  degradation: no degradation had occurred

## NCCCC(=O)OCCN1CCN(CCCN2c3ccccc3Sc3ccc(Cl)cc32)CC1 [mesylate addition salt]
[4]; [8]
  Water content %: 0.6%
[4]; [9]
  Water content %: 1.2%
[4]; [10]
  Water content %: 4.0%
[4]; [11]
  Water content %: 4.8%
[4]; [12]
  Water content %: 0.6%
[4]; [13]
  Water content %: 0.8%
[4]; [14]
  Water content %: 1.2%
[4]; [15]
  Water content %: 0.9%
[4]; [16]
  Water content %: 0.6%
[4]; [17]
  Water content %: 0.8%
[4]; [18]
  Water content %: 1.3%
[4]; [19]
  Water content %: 1.5%
[4]; [20]
  Water content %: 0.6%
[4]; [21]
  Water content %: 0.6%
[4]; [22]
  Water content %: 0.7%
[4]; [23]
  Water content %: 0.6%
[5]; listed as mesylate salt
  texture and color after storage: become sticky in texture and changed color from pink to black
[6]; [8]
  Salt peak area: 97.91%
  perphenazine peak area: 1.39%
[6]; [9]
  Salt peak area: 90.30%
  perphenazine peak area: 8.53%
[6]; [10]
  Salt peak area: 81.40%
  perphenazine peak area: 17.68%
[6]; [11]
  Salt peak area: 61.97%
  Unidentified impurity peak area: 0.05%
  perphenazine peak area: 35.74%
[6]; [12]
  Salt peak area: 97.91%
  perphenazine peak area: 1.39%
[6]; [13]
  Salt peak area: 91.83%
  perphenazine peak area: 7.33%
[6]; [14]
  Salt peak area: 91.91%
  perphenazine peak area: 7.56%
[6]; [15]
  Salt peak area: 87.17%
  perphenazine peak area: 11.63%
[6]; [16]
  Salt peak area: 97.91%
  perphenazine peak area: 1.39%
[6]; [17]
  Salt peak area: 95.84%
  perphenazine peak area: 3.17%
[6]; [18]
  Salt peak area: 94.98%
  perphenazine peak area: 4.52%
[6]; [19]
  Salt peak area: 91.67%
  perphenazine peak area: 6.88%
[6]; [20]
  Salt peak area: 97.91%
  perphenazine peak area: 1.39%
[6]; [21]
  Salt peak area: 98.08%
  perphenazine peak area: 1.34%
[6]; [22]
  Salt peak area: 98.22%
  perphenazine peak area: 1.26%
[6]; [23]
  Salt peak area: 98.24%
  perphenazine peak area: 1.21%
[6]; sealed container at −20° C. under nitrogen atmosphere
  stability in words: mostly stable
[7]; listed as mesylate salt
  calculated solubility: more than 100 mg/ml

## NCCCC(=O)OCCN1CCN(CCCN2c3ccccc3Sc3ccc(Cl)cc32)CC1 [maleate addition salt]
[4]; [8]
  Water content %: 0.3%
[4]; [9]
  Water content %: 0.7%
[4]; [10]
  Water content %: 0.8%
[4]; [11]
  Water content %: 0.8%
[4]; [12]
  Water content %: 0.3%
[4]; [13]
  Water content %: 0.5%
[4]; [14]
  Water content %: 0.7%
[4]; [15]
  Water content %: 0.7%
[4]; [16]
  Water content %: 0.3%
[4]; [17]
  Water content %: 0.5%
[4]; [18]
  Water content %: 0.8%
[4]; [19]
  Water content %: 0.5%
[4]; [20]
  Water content %: 0.3%
[4]; [21]
  Water content %: 0.3%
[4]; [22]
  Water content %: 0.3%
[4]; [23]
  Water content %: 0.5%
[4]; [24]
  water content: 0.91%
[5]; [24]
  purity (HPLC): 94.98%
[5]; listed as maleate salt
  texture and color after storage: slightly discolored, changing from yellow to light orange but stayed as a free flowing solid
[6]; [8]
  Salt peak area: 96.54%
  Unidentified impurity peak area: 1.05%
  perphenazine peak area: 1.44%
[6]; [9]
  Salt peak area: 96.43%
  Unidentified impurity peak area: 0.98%
  perphenazine peak area: 1.44%
[6]; [10]
  Salt peak area: 96.82%
  Unidentified impurity peak area: 0.94%
  perphenazine peak area: 1.46%
[6]; [11]
  Salt peak area: 96.00%
  Unidentified impurity peak area: 0.93%
  perphenazine peak area: 1.43%
[6]; [12]
  Salt peak area: 96.54%
  Unidentified impurity peak area: 1.05%
  perphenazine peak area: 1.44%
[6]; [13]
  Salt peak area: 94.96%
  Unidentified impurity peak area: 2.16%
  perphenazine peak area: 1.52%
[6]; [14]
  Salt peak area: 94.32%
  Unidentified impurity peak area: 2.46%
  perphenazine peak area: 1.65%
[6]; [15]
  Salt peak area: 92.93%
  Unidentified impurity peak area: 2.79%
  perphenazine peak area: 1.80%
[6]; [16]
  Salt peak area: 96.54%
  Unidentified impurity peak area: 1.05%
  perphenazine peak area: 1.44%
[6]; [17]
  Salt peak area: 96.24%
  Unidentified impurity peak area: 1.09%
  perphenazine peak area: 1.43%
[6]; [18]
  Salt peak area: 96.86%
  Unidentified impurity peak area: 1.11%
  perphenazine peak area: 1.40%
[6]; [19]
  Salt peak area: 95.69%
  Unidentified impurity peak area: 1.24%
  perphenazine peak area: 1.47%
[6]; [20]
  Salt peak area: 96.54%
  Unidentified impurity peak area: 1.05%
  perphenazine peak area: 1.44%
[6]; [21]
  Salt peak area: 96.79%
  Unidentified impurity peak area: 0.99%
  perphenazine peak area: 1.38%
[6]; [22]
  Salt peak area: 96.85%
  Unidentified impurity peak area: 0.98%
  perphenazine peak area: 1.39%
[6]; [23]
  Salt peak area: 96.69%
  Unidentified impurity peak area: 1.03%
  perphenazine peak area: 1.39%
[6]; all storage conditions of Table 8
  stability in words: stable in all sample forms
[6]; as compared to the HCl and mesylate salt
  stability and hygroscopicity in words: more stable and less hygroscopic
[6]; [24]
  perphenazine (HPLC): 1.46%
[7]; listed as maleate salt
  calculated solubility: 48 mg/mL

Source: patent publication US20090298814A1, “Novel salts of conjugated psychotropic drugs and processes of preparing same” (RAMOT AT TEL AVIV UNIVERISTY LTD, priority 2005, published 2009)
